Compound: COc1cc(Nc2ncc(F)c(Nc3ccc4c(n3)NC(=O)C(C)(C)O4)n2)cc(OC)c1OC [R406]
Assay: relative viability (nuclei count vs DMSO), 5 days (fraction); higher = more cells survive
Settings: 8 µM
Procedure, shortened: (§1)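 Lung cancer cell lines in 1536-well plates were kept overnight at 37 °C, then pinned with five library-drug doses (not always all listed) spaced by √10 on vehicle-anchored plates. After 5 days without medium change, cells were fixed, permeabilised and Hoechst-stained in one step, imaged at 4×, and nuclei were counted with MetaXpress. Viability is treated-well nuclei divided by vehicle-well nuclei, taken as the median over plates. Plates passed only with control CV below 25% and at least one doubling.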

| Cell Line | relative viability |
| --- | --- |
| LU99A | 0.824 |
| BEN | 0.832 |
| HARA | 0.365 |
| HCC-78 | 0.48 |
| NCI-H322M | 0.405 |
| LCLC-97TM1 | 0.632 |
| NCI-H2009 | 0.376 |
| A-427 | 0.639 |
| NCI-H460 | 0.766 |
| NCI-H727 | 0.668 |
| NCI-H1734 | 0.418 |
| NCI-H520 | 0.298 |
| NCI-H2347 | 0.796 |
| SW 1573 | 0.543 |
| NCI-H1395 | 0.635 |
| 201T | 0.67 |
| NCI-H1915 | 0.835 |

Compound: O=C(/C=C/c1cccnc1)NCCCCC1CCN(C(=O)c2ccccc2)CC1 [Daporinad]
Assay: as above
Settings: 0.0005 µM
Procedure, shortened: as §1

| Cell Line | relative viability |
| --- | --- |
| HCC-366 | 1.04 |
| NCI-H1666 | 0.891 |
| NCI-H647 | 0.914 |
| LK-2 | 0.909 |
| NCI-H2087 | 0.906 |
| NCI-H358 | 0.877 |
| NCI-H2170 | 0.923 |
| H3255 | 0.842 |
| COR-L23 | 1.02 |
| COR-L 105 | 0.906 |
| IA-LM | 0.888 |
| LOU-NH91 | 0.996 |
| NCI-H1793 | 0.801 |
| NCI-H2405 | 1.08 |
| HOP-62 | 0.94 |
| HCC-44 | 0.992 |
| A549 | 1.03 |
| SK-MES-1 | 0.978 |

| Cell Line | relative viability |
| --- | --- |
| LU99A | 0.975 |
| BEN | 0.962 |
| HARA | 0.903 |
| HCC-78 | 0.81 |
| NCI-H322M | 0.906 |
| LCLC-97TM1 | 0.948 |
| NCI-H2009 | 0.918 |
| A-427 | 0.952 |
| NCI-H460 | 0.996 |
| NCI-H727 | 0.931 |
| NCI-H1734 | 1.04 |
| NCI-H520 | 1.14 |
| NCI-H2347 | 1.13 |
| SW 1573 | 1.02 |
| NCI-H1395 | 0.88 |
| 201T | 0.962 |
| NCI-H1915 | 1.01 |

Same assay, conditions: 0.001581 µM

| Cell Line | relative viability |
| --- | --- |
| HCC-366 | 1.01 |
| NCI-H1666 | 1.17 |
| NCI-H647 | 1.11 |
| LK-2 | 1.18 |
| NCI-H2087 | 1.16 |
| NCI-H358 | 0.929 |
| NCI-H2170 | 1.06 |
| H3255 | 1 |
| COR-L23 | 1.04 |
| COR-L 105 | 0.976 |
| IA-LM | 0.896 |
| LOU-NH91 | 1.05 |
| NCI-H1793 | 0.959 |
| NCI-H2405 | 1.12 |
| HOP-62 | 1.08 |
| HCC-44 | 0.993 |
| A549 | 1.05 |
| SK-MES-1 | 1.05 |

| Cell Line | relative viability |
| --- | --- |
| LU99A | 1.09 |
| BEN | 1.04 |
| HARA | 0.958 |
| HCC-78 | 0.938 |
| NCI-H322M | 1.05 |
| LCLC-97TM1 | 1.15 |
| NCI-H2009 | 1.08 |
| A-427 | 1.12 |
| NCI-H460 | 1.02 |
| NCI-H727 | 1.06 |
| NCI-H1734 | 1.14 |
| NCI-H520 | 0.804 |
| NCI-H2347 | 1.13 |
| SW 1573 | 1.15 |
| NCI-H1395 | 1.09 |
| 201T | 1.04 |
| NCI-H1915 | 1.13 |

Same assay, conditions: 0.005 µM

| Cell Line | relative viability |
| --- | --- |
| HCC-366 | 1.02 |
| NCI-H1666 | 1.05 |
| NCI-H647 | 1.07 |
| LK-2 | 0.781 |
| NCI-H2087 | 1.22 |
| NCI-H358 | 1.03 |
| NCI-H2170 | 1.03 |
| H3255 | 1.06 |
| COR-L23 | 0.908 |
| COR-L 105 | 0.991 |
| IA-LM | 0.968 |
| LOU-NH91 | 1.14 |
| NCI-H1793 | 0.984 |
| NCI-H2405 | 1.02 |
| HOP-62 | 1.03 |
| HCC-44 | 0.97 |
| A549 | 0.944 |
| SK-MES-1 | 1.12 |

| Cell Line | relative viability |
| --- | --- |
| LU99A | 1.08 |
| BEN | 0.969 |
| HARA | 0.964 |
| HCC-78 | 1.06 |
| NCI-H322M | 0.936 |
| LCLC-97TM1 | 1.07 |
| NCI-H2009 | 1.07 |
| A-427 | 0.982 |
| NCI-H460 | 0.953 |
| NCI-H727 | 1.06 |
| NCI-H1734 | 0.975 |
| NCI-H520 | 0.286 |
| NCI-H2347 | 1.02 |
| SW 1573 | 0.929 |
| NCI-H1395 | 1.09 |
| 201T | 0.972 |
| NCI-H1915 | 1.07 |

Same assay, conditions: 0.01581 µM

| Cell Line | relative viability |
| --- | --- |
| HCC-366 | 1.03 |
| NCI-H1666 | 1 |
| NCI-H647 | 1.05 |
| LK-2 | 0.283 |
| NCI-H2087 | 1.02 |
| NCI-H358 | 1.06 |
| NCI-H2170 | 1.06 |
| H3255 | 1.19 |
| COR-L23 | 0.275 |
| COR-L 105 | 0.969 |
| IA-LM | 0.859 |
| LOU-NH91 | 1.24 |
| NCI-H1793 | 1.09 |
| NCI-H2405 | 0.509 |
| HOP-62 | 0.491 |
| HCC-44 | 1 |
| A549 | 0.903 |
| SK-MES-1 | 1.03 |

| Cell Line | relative viability |
| --- | --- |
| LU99A | 0.966 |
| BEN | 1.31 |
| HARA | 0.583 |
| HCC-78 | 1.12 |
| NCI-H322M | 0.751 |
| LCLC-97TM1 | 0.941 |
| NCI-H2009 | 0.905 |
| A-427 | 0.602 |
| NCI-H460 | 1.02 |
| NCI-H727 | 0.884 |
| NCI-H1734 | 0.453 |
| NCI-H520 | 0.238 |
| NCI-H2347 | 1.09 |
| SW 1573 | 0.678 |
| NCI-H1395 | 0.969 |
| 201T | 1.01 |
| NCI-H1915 | 1.03 |
